What all share (assay type): binding
The target in assay [1] is T1, kinases (KINOMEscan panel) (Homo sapiens, UniProt O00329).
T1 sequence (O00329 1-1044): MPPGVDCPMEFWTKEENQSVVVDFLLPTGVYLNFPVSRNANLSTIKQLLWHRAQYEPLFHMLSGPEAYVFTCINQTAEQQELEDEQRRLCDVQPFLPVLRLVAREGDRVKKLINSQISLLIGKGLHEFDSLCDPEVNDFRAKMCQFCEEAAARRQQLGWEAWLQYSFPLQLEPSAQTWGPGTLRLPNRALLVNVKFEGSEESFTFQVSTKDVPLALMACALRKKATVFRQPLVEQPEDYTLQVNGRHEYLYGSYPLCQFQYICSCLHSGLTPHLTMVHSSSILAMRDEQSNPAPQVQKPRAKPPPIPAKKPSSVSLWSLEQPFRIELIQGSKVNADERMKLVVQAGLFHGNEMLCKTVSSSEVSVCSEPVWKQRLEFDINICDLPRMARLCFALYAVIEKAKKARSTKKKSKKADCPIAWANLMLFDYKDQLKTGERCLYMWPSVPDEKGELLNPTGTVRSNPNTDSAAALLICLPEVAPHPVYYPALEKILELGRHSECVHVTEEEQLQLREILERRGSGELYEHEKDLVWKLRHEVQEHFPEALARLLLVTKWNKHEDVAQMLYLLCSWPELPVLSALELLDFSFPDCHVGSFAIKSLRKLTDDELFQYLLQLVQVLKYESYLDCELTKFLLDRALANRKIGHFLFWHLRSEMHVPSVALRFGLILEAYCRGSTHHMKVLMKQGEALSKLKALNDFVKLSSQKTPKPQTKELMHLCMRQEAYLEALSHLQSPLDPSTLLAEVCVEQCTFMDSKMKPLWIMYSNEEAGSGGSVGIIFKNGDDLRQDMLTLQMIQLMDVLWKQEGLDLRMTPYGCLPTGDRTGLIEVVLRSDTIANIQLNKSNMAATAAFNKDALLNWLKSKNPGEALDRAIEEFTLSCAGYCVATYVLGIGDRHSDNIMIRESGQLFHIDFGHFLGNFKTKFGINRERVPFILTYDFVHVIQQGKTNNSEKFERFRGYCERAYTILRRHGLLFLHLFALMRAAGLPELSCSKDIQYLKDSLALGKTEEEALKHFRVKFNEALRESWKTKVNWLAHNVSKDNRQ
Conditions: NEW KINOMEscan.

The target of assay [2] is kinases (KINOMEscan panel) (Homo sapiens, UniProt O75716). Conditions: kinase STK16; NEW KINOMEscan.
Chain of kinases (KINOMEscan panel) (Homo sapiens, UniProt O75716) (O75716 whole entry): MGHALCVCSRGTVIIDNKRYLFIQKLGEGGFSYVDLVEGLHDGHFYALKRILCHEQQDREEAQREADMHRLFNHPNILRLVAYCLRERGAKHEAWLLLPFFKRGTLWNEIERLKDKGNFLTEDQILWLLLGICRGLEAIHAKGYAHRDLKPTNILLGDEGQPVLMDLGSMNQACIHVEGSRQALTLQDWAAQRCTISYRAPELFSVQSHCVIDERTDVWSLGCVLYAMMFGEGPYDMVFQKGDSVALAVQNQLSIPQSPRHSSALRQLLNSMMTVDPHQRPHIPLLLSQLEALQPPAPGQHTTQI
The target in assay [3] is T2, kinases (KINOMEscan panel) (Homo sapiens, UniProt Q16566).
T2 sequence (Q16566 1-473): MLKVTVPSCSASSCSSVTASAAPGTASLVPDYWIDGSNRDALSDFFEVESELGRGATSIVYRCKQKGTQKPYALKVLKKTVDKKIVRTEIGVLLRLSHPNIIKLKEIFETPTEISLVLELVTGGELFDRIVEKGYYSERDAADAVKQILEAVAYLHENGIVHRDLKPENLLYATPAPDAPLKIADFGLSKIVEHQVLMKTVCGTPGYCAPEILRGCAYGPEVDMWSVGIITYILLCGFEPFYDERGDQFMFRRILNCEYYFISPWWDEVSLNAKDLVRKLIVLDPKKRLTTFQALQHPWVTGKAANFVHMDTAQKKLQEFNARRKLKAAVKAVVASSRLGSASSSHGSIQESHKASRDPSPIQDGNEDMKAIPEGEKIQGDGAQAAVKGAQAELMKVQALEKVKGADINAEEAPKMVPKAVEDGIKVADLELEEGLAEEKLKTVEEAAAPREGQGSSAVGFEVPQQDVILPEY
The note with it: CAMK4; NEW KINOMEscan.

For assay [4], the target named is kinases (KINOMEscan panel) (Homo sapiens, UniProt P10721, V559D). The note with it: kinase KIT(V559D); NEW KINOMEscan.
The target in assay [5] is kinases (KINOMEscan panel) (Homo sapiens, UniProt P36894). Conditions: kinase BMPR1A; NEW KINOMEscan.
Assay [6] has as its target kinases (KINOMEscan panel) (Homo sapiens, UniProt O94921). Conditions: NEW KINOMEscan.
Assay [7] deals with kinases (KINOMEscan panel) (Homo sapiens, UniProt Q9P0L2). Conditions: NEW KINOMEscan.
Assay [8] addresses kinases (KINOMEscan panel) (Homo sapiens, UniProt Q8NEV4). Conditions: kinase MYO3A; NEW KINOMEscan.
For assay [9], the target named is kinases (KINOMEscan panel) (Homo sapiens, UniProt Q9UKE5). The note with it: TNIK; NEW KINOMEscan.
For assay [10], the target named is kinases (KINOMEscan panel) (Homo sapiens, UniProt Q13555). Conditions: CAMK2G; NEW KINOMEscan.
Chain of kinases (KINOMEscan panel) (Homo sapiens, UniProt Q13555) (Q13555 whole entry): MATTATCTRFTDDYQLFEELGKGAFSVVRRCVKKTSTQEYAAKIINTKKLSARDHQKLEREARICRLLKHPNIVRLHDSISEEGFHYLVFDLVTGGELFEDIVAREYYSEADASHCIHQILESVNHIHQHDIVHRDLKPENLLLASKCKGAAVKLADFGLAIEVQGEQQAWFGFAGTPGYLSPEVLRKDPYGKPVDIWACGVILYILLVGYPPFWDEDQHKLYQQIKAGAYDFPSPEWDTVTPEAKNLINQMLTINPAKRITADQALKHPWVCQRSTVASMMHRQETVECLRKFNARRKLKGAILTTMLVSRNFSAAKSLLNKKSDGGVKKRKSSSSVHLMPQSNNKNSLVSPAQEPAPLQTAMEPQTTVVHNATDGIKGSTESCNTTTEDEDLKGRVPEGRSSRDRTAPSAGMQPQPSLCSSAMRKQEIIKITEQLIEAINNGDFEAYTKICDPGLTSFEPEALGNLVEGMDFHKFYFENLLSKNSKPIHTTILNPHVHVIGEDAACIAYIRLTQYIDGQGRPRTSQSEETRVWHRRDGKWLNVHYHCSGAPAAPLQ
The target of assay [11] is kinases (KINOMEscan panel) (Homo sapiens, UniProt P24723). Conditions: kinase PRKCH; NEW KINOMEscan.
In assay [12] the target is kinases (KINOMEscan panel) (Homo sapiens, UniProt P00519, E255K). The note with it: NEW KINOMEscan.
Chain of kinases (KINOMEscan panel) (Homo sapiens, UniProt P00519, E255K) (P00519 whole entry E255K): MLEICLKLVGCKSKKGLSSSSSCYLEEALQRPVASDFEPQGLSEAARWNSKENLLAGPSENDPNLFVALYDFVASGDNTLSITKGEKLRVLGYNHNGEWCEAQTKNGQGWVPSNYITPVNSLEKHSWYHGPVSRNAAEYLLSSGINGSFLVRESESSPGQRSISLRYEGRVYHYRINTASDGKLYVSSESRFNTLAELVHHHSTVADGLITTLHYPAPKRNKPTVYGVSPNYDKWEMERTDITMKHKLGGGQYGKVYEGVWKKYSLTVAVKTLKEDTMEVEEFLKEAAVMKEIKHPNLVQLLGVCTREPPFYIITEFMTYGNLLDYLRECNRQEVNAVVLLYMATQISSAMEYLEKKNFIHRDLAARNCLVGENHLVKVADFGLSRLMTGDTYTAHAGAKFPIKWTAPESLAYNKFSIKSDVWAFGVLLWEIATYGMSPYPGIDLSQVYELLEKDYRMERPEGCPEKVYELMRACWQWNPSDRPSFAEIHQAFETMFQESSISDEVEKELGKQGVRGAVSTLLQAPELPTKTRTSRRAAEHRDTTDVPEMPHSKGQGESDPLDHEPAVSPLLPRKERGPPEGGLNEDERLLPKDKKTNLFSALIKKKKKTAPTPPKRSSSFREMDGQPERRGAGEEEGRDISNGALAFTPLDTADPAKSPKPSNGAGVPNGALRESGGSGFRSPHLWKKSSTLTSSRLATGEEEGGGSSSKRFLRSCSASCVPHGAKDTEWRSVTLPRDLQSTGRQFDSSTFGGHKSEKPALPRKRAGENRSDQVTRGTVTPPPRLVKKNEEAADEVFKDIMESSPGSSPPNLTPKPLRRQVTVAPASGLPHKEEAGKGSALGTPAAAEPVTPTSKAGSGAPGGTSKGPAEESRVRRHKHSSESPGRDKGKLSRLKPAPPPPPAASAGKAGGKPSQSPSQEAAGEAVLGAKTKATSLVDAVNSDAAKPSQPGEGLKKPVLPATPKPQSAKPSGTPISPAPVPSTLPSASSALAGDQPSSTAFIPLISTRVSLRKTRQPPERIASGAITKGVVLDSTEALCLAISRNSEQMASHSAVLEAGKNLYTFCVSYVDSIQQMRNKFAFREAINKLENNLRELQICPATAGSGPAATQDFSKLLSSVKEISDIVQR
Assay [13] concerns the target kinases (KINOMEscan panel) (Homo sapiens, UniProt Q9Y6R4). Conditions: MAP3K4; NEW KINOMEscan.
In assay [14] the target is kinases (KINOMEscan panel) (Homo sapiens, UniProt P42336, E542K). The note with it: NEW KINOMEscan.
Assay [15] deals with kinases (KINOMEscan panel) (Homo sapiens, UniProt O75116). The note with it: kinase ROCK2; NEW KINOMEscan.
Chain of kinases (KINOMEscan panel) (Homo sapiens, UniProt O75116) (O75116 whole entry): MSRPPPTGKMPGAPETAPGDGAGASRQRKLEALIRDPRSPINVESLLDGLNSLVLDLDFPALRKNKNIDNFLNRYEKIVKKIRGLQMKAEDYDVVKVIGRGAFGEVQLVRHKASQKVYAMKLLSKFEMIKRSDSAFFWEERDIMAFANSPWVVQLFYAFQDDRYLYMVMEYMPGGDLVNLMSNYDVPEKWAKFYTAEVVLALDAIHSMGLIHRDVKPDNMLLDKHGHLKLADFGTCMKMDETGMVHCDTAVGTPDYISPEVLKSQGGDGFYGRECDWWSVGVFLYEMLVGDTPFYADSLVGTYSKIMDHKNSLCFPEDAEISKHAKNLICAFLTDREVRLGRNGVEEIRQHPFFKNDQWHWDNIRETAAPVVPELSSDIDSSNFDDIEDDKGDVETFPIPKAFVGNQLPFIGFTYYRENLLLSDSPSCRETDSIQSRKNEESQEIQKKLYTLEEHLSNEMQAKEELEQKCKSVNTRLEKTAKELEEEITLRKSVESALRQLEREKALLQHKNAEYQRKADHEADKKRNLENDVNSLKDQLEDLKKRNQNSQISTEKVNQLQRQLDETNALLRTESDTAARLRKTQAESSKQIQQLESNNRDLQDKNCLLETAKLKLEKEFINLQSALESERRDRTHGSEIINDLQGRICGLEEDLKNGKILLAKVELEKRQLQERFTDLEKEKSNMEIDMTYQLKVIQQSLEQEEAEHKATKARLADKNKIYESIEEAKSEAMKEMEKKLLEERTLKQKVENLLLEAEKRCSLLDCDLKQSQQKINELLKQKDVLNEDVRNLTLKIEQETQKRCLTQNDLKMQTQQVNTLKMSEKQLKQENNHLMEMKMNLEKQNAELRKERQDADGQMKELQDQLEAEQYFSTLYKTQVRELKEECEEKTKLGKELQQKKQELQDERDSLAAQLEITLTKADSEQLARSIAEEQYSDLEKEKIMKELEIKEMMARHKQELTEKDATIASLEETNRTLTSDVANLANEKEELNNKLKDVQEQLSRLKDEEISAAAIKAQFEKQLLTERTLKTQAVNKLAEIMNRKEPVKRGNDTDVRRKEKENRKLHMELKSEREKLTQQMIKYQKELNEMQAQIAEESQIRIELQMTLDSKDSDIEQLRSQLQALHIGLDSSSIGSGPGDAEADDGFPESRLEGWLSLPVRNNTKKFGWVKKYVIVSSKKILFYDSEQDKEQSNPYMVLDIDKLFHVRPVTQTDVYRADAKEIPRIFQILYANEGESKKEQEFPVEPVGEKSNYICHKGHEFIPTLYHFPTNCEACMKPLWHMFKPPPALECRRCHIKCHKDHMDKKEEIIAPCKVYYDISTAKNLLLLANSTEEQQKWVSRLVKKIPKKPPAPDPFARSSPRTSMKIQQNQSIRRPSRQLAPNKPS
In assay [16] the target is kinases (KINOMEscan panel) (Homo sapiens, UniProt P06239). Conditions: LCK; NEW KINOMEscan.

Chain of kinases (KINOMEscan panel) (Homo sapiens, UniProt Q8NEV4) (Q8NEV4 whole entry): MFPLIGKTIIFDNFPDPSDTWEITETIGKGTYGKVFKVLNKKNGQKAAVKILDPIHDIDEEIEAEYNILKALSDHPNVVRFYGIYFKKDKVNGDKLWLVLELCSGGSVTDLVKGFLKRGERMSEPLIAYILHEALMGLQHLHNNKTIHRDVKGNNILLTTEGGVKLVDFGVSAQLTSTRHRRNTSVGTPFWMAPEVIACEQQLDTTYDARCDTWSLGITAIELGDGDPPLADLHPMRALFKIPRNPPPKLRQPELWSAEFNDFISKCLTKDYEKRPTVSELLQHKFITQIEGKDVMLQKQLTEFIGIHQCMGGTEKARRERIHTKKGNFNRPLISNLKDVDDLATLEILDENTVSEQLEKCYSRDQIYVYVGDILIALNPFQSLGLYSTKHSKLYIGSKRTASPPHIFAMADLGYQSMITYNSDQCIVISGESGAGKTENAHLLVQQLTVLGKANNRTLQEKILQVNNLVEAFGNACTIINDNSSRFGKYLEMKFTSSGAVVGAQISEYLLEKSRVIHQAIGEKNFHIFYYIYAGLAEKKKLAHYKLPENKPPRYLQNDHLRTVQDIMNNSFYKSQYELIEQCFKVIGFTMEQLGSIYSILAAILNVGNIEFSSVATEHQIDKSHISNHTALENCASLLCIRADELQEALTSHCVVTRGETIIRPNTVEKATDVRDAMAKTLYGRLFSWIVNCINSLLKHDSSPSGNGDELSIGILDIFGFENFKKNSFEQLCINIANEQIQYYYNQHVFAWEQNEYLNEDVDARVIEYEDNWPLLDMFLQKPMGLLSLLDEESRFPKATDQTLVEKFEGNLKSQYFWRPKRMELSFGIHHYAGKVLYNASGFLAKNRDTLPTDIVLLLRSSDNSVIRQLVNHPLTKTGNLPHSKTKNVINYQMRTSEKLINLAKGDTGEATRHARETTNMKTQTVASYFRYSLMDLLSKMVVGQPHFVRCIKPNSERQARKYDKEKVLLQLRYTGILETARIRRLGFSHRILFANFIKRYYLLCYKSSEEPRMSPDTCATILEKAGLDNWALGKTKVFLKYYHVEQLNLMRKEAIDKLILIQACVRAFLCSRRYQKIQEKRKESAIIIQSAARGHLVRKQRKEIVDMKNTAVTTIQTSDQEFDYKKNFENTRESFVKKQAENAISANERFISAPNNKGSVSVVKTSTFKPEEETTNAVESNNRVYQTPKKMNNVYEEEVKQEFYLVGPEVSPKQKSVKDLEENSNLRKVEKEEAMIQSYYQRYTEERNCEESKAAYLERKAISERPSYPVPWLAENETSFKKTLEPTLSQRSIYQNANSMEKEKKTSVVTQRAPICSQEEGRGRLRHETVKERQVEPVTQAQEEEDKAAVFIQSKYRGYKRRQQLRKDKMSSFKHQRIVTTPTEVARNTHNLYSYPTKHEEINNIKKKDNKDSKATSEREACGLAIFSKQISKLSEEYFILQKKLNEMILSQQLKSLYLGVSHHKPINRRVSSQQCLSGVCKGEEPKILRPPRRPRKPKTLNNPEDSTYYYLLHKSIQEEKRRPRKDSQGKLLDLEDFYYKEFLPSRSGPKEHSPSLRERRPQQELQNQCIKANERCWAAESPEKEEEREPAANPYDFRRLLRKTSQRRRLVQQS

For the compound `Cc1cccc(-c2nc(N(C)c3ccc4ncsc4c3)c3ccccc3n2)n1` [NK-161], in assay [1], the “KINOMEscan PIK3CD” value was found to be 2. In [2], the “KINOMEscan STK16” value is reported as 15. In assay [3], the “KINOMEscan CAMK4” value stood at 7. For the same compound, the “KINOMEscan KIT(V559D)” value in [4] was found to be 7. For the same compound, the “KINOMEscan BMPR1A” value in [5] came out at 4. The “KINOMEscan CDK14” value in assay [6] came to 0. In addition, in assay [7], the “KINOMEscan MARK1” value stood at 13. Also, the “KINOMEscan MYO3A” value in assay [8] worked out at 0. In addition, the “KINOMEscan TNIK” value in [9] was 0. Moreover, the “KINOMEscan CAMK2G” value in assay [10] is on record as 0. The “KINOMEscan PRKCH” value in [11] turned out to be 8. Further, the “KINOMEscan ABL1(E255K)-phosphorylated” value in assay [12] is listed as 22. Moreover, in assay [13], the “KINOMEscan MAP3K4” value came out at 0. For the same compound, the “KINOMEscan PIK3CA(E542K)” value in assay [14] was 19. Besides, in [15], the “KINOMEscan ROCK2” value is given as 0. The “KINOMEscan LCK” value in assay [16] was 2.

As for `Cc1cccc(-c2nc(Nc3ccc4nn(C)cc4c3)c3ccccc3n2)n1` [NK167], the “KINOMEscan PIK3CD” value in assay [1] was 0. Moreover, the “KINOMEscan STK16” value in assay [2] is reported as 19. The “KINOMEscan CAMK4” value in assay [3] was determined as 2. In addition, the “KINOMEscan KIT(V559D)” value in assay [4] is 15. Also, the “KINOMEscan BMPR1A” value in assay [5] is recorded as 13. Also, in assay [6], the “KINOMEscan CDK14” value is given as 17. Also, in assay [7], the “KINOMEscan MARK1” value was found to be 21. Also, the “KINOMEscan MYO3A” value in [8] is 0. Besides, the “KINOMEscan TNIK” value in assay [9] is on record as 0. In addition, the “KINOMEscan CAMK2G” value in [10] is recorded as 0. In [11], the “KINOMEscan PRKCH” value is given as 21. Besides, in assay [12], the “KINOMEscan ABL1(E255K)-phosphorylated” value is on record as 15. Moreover, the “KINOMEscan MAP3K4” value in assay [13] was 3. Further, the “KINOMEscan PIK3CA(E542K)” value in [14] amounted to 15. Moreover, the “KINOMEscan ROCK2” value in assay [15] is 0. For the same compound, the “KINOMEscan LCK” value in assay [16] is given as 0.
